Measurements as given in patent US20090215778A1, “Alpha-substituted Arylmethyl Piperazine Pyrazolo [1,5-alpha]Pyrimidine Amide Derivatives” (priority 2007, published 2009).
pIC50: −log10 of the molar value.

Assays:
[1] = biological target: T1, HIV Env six-helix bundle (6HB) structure (Human immunodeficiency virus type 1 group M subtype B, UniProt P04579); experiment: Six-helix bundle (6HB) assay; assay type: cell-based, HIV-1 (strain RF)
T1 construct: H9 cells chronically infected with HIV-1 (H9/HIV-1RF); endogenous in cells; host or cells: H9 cells chronically infected with HIV-1 strain RF (Env is made from the virus in the infected cells, not by transfection)
Experimental: 3×10^6H9 cells were incubated with 1 mL of HIV-1 (strain RF) supplemented with 40 μg/mL of DEAE-dextran. Virus and cells were incubated together at 37° C. for 2-4 hours with sporadic shaking to resuspend cells. 10 mL of media (RPMI 1640 containing 10% fetal bovine serum and supplemented with 50 μg/mL gentamicin) was then added and the virus-cell coculture was incubated at 37° C. in a humidified 5% CO2 incubator. 3 days post-infection and every 2-3 days thereafter, the infected H9/HIV-1RF cells were centrifuged, the supernatant was removed, and the cells were resuspended at a density of 0.3×10^6 cells/mL in media (RPMI 1640 containing 10% fetal bovine serum and supplemented with 50 μg/mL gentamicin). Chronically infected H9/HIV-1RF cells were used in experiments starting 12-15 days after infection and up to 40 days post-infection.
This assay determines the effect of compounds on conformational changes in HIV envelope glycoprotein (Env) that are required in order for Env to mediate the fusion of the viral and cellular membranes during virus entry and infection. Specifically, this assay measures the effect of compounds on the formation of the HIV Env six-helix bundle (6HB) structure.
H9 cells chronically infected with HIV-1 (H9/HIV-1RF) were resuspended in Stain/Wash Buffer (1% bovine serum albumin, 0.1% sodium azide in phosphate-buffered saline) and aliquoted at 2.5×10^5 cells per well into 96-well V-bottom plates containing various concentrations of test compounds. Cells and compounds were incubated for 30 minutes at 37° C. Recombinant soluble CD4 (sCD4) was then added to a final concentration of 1 μg/mL. Negative control wells contained no sCD4 and no test compound. Positive control wells contained sCD4 but no test compound. The plate was incubated for 1 hour at 37° C. to allow the sCD4 to bind to HIV Env and induce conformational changes in the Env protein. Antibody that is specific for the HIV Env six-helix bundle conformation was then added (1 μL polyclonal rabbit serum per well), and the plate was incubated for an additional 1 hour at 37° C. to permit antibody binding. The cells were then washed once with Stain/Wash Buffer to remove compound and excess antibody. The cells were resuspended in Stain/Wash Buffer containing PE-labeled anti-rabbit secondary antibody (KPL) at 0.25 μg per well. The cells were incubated for 45 min at 4° C. to permit secondary antibody binding. Fluorescence was detected using a BD FACSArray™ bioanalyzer. Compounds that inhibited Env conformational changes were identified as those that decreased primary antibody binding to the six-helix bundle epitope resulting in a decrease in fluorescence signal.

HIV-1, NL4-3 strain = experiment: Virus infection assay (virus entry and single-cycle infection); assay type: cell-based; conditions: Human immunodeficiency virus 1, NL43, TZM-b1, read-out: Nl4
Experimental: TZM-b1 indicator cells were propagated in Dulbecco's Modified Eagle's Medium (DMEM) containing 10% fetal bovine serum (FBS, heat-inactivated) and supplemented with gentamicin (50 ug/mL).
This assay determines the effects of compounds on virus entry and single-cycle infection of cells. In this assay, virus (HIV-1, NL4-3 strain) is added to indicator cells expressing the CD4 receptor and both the CXCR4 and CCR5 co-receptor. The cells contain both a lac Z and a luciferase reporter gene under control of the viral LTR transcription promoter. The cells and virus are incubated together in the presence of various concentrations of test compounds. Successful infection of the cells by the virus permits activation of the reporter gene by the viral Tat transcription factor. The resulting beta-galactosidase or luciferase activity is quantitated using a chemiluminescent substrate and a luminescent plate reader.
Specifically, one day prior to infection, 1.5×10^4 TZM-b1 indicator cells were added to each well of a 96-well microtiter plate. On the day of the experiment, virus (MOI 0.01) in 50 μL of medium (Dulbecco's Modified Eagle's Medium) supplemented with DEAE-dextran at a final concentration of 80 μg/mL was added to cells along with various concentrations of test compound in 50 μL of Dulbecco's Modified Eagle's Medium. Control wells had virus alone. Following a 4 hr incubation at 37° C., complete media [DMEM supplemented with 10% fetal bovine serum (FBS, heat-inactivated) and gentamicin (50 ug/mL)] was added. One day post-infection the level of virus infection was quantitated by detection of β-galactosidase expression using the Gal-Screen system (Applied Biosystems).

T1 sequence (P04579 32-519): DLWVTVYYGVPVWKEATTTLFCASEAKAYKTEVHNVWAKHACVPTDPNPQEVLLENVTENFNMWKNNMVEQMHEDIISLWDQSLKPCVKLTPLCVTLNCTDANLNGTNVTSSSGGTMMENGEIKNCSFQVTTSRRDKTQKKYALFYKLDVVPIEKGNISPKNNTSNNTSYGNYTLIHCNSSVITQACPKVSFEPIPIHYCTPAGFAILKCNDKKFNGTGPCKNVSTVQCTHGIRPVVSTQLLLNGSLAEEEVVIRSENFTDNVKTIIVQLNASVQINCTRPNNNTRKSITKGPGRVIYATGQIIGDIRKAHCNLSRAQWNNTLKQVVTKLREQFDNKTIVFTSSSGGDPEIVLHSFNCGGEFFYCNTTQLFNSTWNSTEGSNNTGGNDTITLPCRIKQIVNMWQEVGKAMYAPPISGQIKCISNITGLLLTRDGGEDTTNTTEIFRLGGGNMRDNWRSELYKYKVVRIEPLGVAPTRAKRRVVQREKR
T1 sequence (P04579 520-865): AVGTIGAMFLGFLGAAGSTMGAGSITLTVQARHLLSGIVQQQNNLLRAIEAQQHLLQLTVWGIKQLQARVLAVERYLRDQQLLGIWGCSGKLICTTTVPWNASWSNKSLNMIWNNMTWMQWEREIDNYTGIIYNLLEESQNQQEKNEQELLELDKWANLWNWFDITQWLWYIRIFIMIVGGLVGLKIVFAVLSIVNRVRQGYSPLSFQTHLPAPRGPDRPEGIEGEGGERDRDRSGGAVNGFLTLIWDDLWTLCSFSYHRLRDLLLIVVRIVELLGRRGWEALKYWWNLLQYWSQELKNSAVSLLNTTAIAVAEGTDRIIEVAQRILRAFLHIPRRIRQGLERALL

SMILES: COc1ccc(-c2nc3c(C(=O)N4CCN(C(CO)c5ccoc5)C[C@H]4C)cnn3c(C(F)(F)F)c2C)cc1 (stereo partly drawn) [methanone, [(2R)-4-[1-(3-furanyl)-2-hydroxyethyl]-2-methyl-1-piperazinyl][5-(4-methoxyphenyl)-6-methyl-7-(trifluoromethyl)pyrazolo[1,5-α]pyrimidin-3-yl]-]
- pIC50 [1]: > 6.00
- pIC50 (HIV-1, NL4-3 strain): > 6.00

SMILES: COc1ccc(-c2nc3c(C(=O)N4CCN([C@@H](C)c5cccc(NS(C)(=O)=O)c5)C[C@H]4C)cnn3c(C(F)(F)F)c2C)cc1 [methanesulfonamide, N-[3-[(1S)-1-[(3R)-4-[[5-(4-methoxyphenyl)-6-methyl-7-(trifluoromethyl)pyrazolo[1,5-α]pyrimidin-3-yl]carbonyl]-3-methyl-1-piperazinyl]ethyl]phenyl]-]
- pIC50 [1]: > 6.00
- pIC50 (HIV-1, NL4-3 strain): > 6.00

SMILES: COc1ccc(-c2nc3c(C(=O)N4CCN([C@@H](C)c5ccn(C)n5)C[C@H]4C)cnn3c(C(F)(F)F)c2C)cc1 [methanone, [5-(4-methoxyphenyl)-6-methyl-7-(trifluoromethyl)pyrazolo[1,5-α]pyrimidin-3-yl][(2R)-2-methyl-4-[(1S)-1-(1-methyl-1H-pyrazol-3-yl)ethyl]-1-piperazinyl]-]
- pIC50 [1]: 5.00 to 5.96
- pIC50 (HIV-1, NL4-3 strain): > 6.00

SMILES: COc1ccc(-c2nc3c(C(=O)N4CCN([C@H](CO)c5cccc(OC)c5F)C[C@H]4C)cnn3c(C(F)(F)F)c2C)cc1 [methanone, [(2R)-4-[(1S)-1-(2-fluoro-3-methoxyphenyl)-2-hydroxyethyl]-2-methyl-1-piperazinyl][5-(4-methoxyphenyl)-6-methyl-7-(trifluoromethyl)pyrazolo[1,5-α]pyrimidin-3-yl]-]
- pIC50 [1]: > 6.00
- pIC50 (HIV-1, NL4-3 strain): > 6.00

SMILES: COc1ccc(-c2nc3c(C(=O)N4CCN([C@H](CO)c5ccccc5F)C[C@H]4C)cnn3c(C(F)(F)F)c2C)cc1 [methanone, [(2R)-4-[(1S)-1-(2-fluorophenyl)-2-hydroxyethyl]-2-methyl-1-piperazinyl][5-(4-methoxyphenyl)-6-methyl-7-(trifluoromethyl)pyrazolo[1,5-α]pyrimidin-3-yl]-]
- pIC50 [1]: > 6.00
- pIC50 (HIV-1, NL4-3 strain): > 6.00

SMILES: COc1ccc(-c2nc3c(C(=O)N4CCN(C(CO)c5cccc(CN)c5)C[C@H]4C)cnn3c(C(F)(F)F)c2C)cc1 (stereo partly drawn) [methanone, [(2R)-4-[1-[3-(aminomethyl)phenyl]-2-hydroxyethyl]-2-methyl-1-piperazinyl][5-(4-methoxyphenyl)-6-methyl-7-(trifluoromethyl)pyrazolo[1,5-α]pyrimidin-3-yl]-]
- pIC50 [1]: < 5.00
- pIC50 (HIV-1, NL4-3 strain): < 5.00

SMILES: COc1ccc(-c2nc3c(C(=O)N4CCN([C@@H](C)c5ccc(N)cc5)C[C@H]4C)cnn3c(C(F)(F)F)c2C)cc1 [methanone, [(2R)-4-[(1S)-1-(4-aminophenyl)ethyl]-2-methyl-1-piperazinyl][5-(4-methoxyphenyl)-6-methyl-7-(trifluoromethyl)pyrazolo[1,5-α]pyrimidin-3-yl]-]
- pIC50 [1]: 5.00 to 5.96
- pIC50 (HIV-1, NL4-3 strain): > 6.00

SMILES: COc1ccc(-c2nc3c(C(=O)N4CCN([C@@H](C)c5ccc(NC(N)=O)cc5)C[C@H]4C)cnn3c(C(F)(F)F)c2C)cc1 [urea, N-[4-[(1)-1-[(3R)-4-[[5-(4-methoxyphenyl)-6-methyl-7-(trifluoromethyl)pyrazolo[1,5-α]pyrimidin-3-yl]carbonyl]-3-methyl-1-piperazinyl]ethyl]phenyl]-]
- pIC50 [1]: 5.00 to 5.96
- pIC50 (HIV-1, NL4-3 strain): > 6.00

SMILES: COc1ccc(-c2nc3c(C(=O)N4CCN(C(C#N)c5ccccc5)C[C@H]4C)cnn3c(C(F)(F)F)c2C)cc1 (stereo partly drawn) [1-piperazineacetonitrile, 4-[[5-(4-methoxyphenyl)-6-methyl-7-(trifluoromethyl)pyrazolo[1,5-α]pyrimidin-3-yl]carbonyl]-3-methyl-α-phenyl-, (3R)-]
- pIC50 [1]: > 6.00
- pIC50 (HIV-1, NL4-3 strain): > 6.00

SMILES: COc1ccc(-c2nc3c(C(=O)N4CCN([C@@H](C)c5ccccn5)C[C@H]4C)cnn3c(C(F)(F)F)c2C)cc1 [methanone, [5-(4-methoxyphenyl)-6-methyl-7-(trifluoromethyl)pyrazolo[1,5-α]pyrimidin-3-yl][(2R)-2-methyl-4-[(1S)-1-(2-pyridinyl)ethyl]-1-piperazinyl]-]
- pIC50 [1]: > 6.00
- pIC50 (HIV-1, NL4-3 strain): > 6.00
